We go through one compound from US20030152647A1, “Safe botanical drug for treating malignant pleural effusion and cancer and increasing immune function” (priority 2002, published 2003).

This assay deals with peritoneal macrophage. Briefly: Phagocytosis of peritoneal macrophage in mice. Particulars: drugs subcutaneously daily for 7 days. It counts as in vivo. The method, then:
Added 0.02 ml of 5% washed chick red blood cell suspension to 0.5 ml of the peritoneal exudate, shaken gently to mix and incubated at 37° C. for 5 minutes. Dipped two coverslips, closed to each other, in the above mixture and incubate for 30 minutes for the migration of the macrophages along the coverslips then fixed and stained with Sharma stain. Examined microscopically for: Phagocytic rate—number of macrophages with phagocytized chick red blood cells per 100 macrophages counted.
Method of animal model was regular. The drugs were injected subcutaneously daily for 7 days.

Take `O=P1(N(CCCl)CCCl)NCCCO1` (stereo not shown) [CY, Cyclophosphamide]: the “Phagocytic rate (x + SD, %)” value is given as 7.52 ± 0.46%.
